# Data published in US11999699B2, “Substituted pyrazole amides” (GRUENENTHAL GMBH, priority 2021, dated 2024).
# Molecular target: T1, human NaV1.8 (Homo sapiens, UniProt Q9Y5Y9)
# T1 construct: The following NaV1.8 recombinant cell line was used for recordings: HEK-NaV1.8 (NM 006514.1); expressed in transfected cells; host or cells: HEK (recombinant cell line HEK-NaV1.8)
# Test: Electrophysiology: automated whole-cell voltage-clamp (patch clamp, Qube384) recordings of sodium currents in HEK-NaV1.8 cells
# Type: cell-based
# Settings: potency data either taken from inactivated or resting state, read-out: Potency category (human NaV1.8 IC50)
# Outline: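 Automated whole-cell patch clamp at room temperature on HEK cells expressing human NaV1.8, with 0.3% DMSO vehicle controls. State-dependent protocol from −120 mV tested resting (P1) and half-inactivated (P2, 4 s at V1/2) channels, plus 40-pulse trains at 10 and 20 Hz. Values after ~12 min compound exposure were normalised to baseline and corrected for vehicle run-down; IC50 from a 4-parameter logistic fit, taken from inactivated or resting state.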
# T1 sequence (Q9Y5Y9 whole entry): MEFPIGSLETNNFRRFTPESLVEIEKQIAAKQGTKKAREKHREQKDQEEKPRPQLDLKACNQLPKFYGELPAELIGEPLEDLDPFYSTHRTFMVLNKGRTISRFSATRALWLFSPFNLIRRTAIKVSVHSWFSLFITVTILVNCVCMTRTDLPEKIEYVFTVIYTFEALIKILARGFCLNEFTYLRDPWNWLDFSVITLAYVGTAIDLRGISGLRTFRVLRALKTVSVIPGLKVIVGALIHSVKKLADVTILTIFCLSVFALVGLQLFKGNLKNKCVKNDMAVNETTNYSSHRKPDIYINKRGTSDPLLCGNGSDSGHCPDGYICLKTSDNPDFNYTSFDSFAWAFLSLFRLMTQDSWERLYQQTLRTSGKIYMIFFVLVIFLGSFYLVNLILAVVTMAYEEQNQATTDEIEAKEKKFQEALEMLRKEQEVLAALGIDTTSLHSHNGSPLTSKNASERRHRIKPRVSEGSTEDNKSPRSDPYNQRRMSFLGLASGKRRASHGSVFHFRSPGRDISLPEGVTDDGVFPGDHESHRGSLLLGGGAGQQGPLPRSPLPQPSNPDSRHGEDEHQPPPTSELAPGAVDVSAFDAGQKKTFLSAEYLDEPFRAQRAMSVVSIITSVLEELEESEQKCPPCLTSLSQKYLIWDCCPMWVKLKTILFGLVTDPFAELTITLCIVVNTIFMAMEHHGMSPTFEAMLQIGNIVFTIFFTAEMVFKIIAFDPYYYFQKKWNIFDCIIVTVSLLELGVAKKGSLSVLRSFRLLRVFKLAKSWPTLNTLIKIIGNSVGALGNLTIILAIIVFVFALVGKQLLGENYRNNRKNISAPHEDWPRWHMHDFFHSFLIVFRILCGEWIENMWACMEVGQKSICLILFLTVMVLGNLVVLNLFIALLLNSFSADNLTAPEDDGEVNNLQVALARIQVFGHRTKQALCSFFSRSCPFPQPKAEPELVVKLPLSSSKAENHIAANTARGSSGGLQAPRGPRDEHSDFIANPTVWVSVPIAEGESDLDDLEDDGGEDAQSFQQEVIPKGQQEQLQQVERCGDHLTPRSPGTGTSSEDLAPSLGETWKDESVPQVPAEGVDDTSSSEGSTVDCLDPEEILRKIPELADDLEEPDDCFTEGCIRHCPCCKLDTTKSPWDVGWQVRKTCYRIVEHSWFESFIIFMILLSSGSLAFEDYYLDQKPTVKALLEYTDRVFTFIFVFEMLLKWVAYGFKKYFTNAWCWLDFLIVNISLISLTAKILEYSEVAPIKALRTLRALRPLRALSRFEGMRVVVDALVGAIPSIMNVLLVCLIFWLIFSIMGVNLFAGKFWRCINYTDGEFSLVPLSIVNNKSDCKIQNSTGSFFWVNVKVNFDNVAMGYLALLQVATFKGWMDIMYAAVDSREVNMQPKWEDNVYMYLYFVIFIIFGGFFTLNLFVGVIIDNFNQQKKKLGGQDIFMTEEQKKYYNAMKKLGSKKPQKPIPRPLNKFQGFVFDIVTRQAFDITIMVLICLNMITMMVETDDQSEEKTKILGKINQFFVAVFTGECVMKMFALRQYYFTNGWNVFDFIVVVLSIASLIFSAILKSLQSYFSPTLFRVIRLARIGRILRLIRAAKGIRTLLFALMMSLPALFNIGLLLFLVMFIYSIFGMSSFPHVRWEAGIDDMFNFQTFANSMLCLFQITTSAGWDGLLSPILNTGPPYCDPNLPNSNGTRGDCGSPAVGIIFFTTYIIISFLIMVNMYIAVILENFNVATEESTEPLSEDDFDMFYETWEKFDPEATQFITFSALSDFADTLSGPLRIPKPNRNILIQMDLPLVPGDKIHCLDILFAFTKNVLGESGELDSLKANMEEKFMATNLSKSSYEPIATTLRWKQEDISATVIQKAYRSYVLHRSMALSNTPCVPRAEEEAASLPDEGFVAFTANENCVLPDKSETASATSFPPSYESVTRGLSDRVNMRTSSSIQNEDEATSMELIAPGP
# T1 sequence (Q9NY72 23-215 partner): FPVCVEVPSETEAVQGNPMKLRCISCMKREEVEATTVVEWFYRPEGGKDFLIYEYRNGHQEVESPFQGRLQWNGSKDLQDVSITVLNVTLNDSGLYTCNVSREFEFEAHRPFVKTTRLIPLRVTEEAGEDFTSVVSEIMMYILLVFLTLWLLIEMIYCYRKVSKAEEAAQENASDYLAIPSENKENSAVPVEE
smiles,measurement,value
"CS(=O)(=O)c1cc(NC(=O)c2c(C(F)F)c(C3CC3)nn2CC2CCOCC2)ccn1 [SC-153, 3-cyclopropyl-4-(difluoromethyl)-N-(2-(methylsulfonyl)pyridin-4-yl)-1-((tetrahydro-2H-pyran-4-yl)methyl)-1H-pyrazole-5-carboxamide]",IC50,≤ 100 nM
"CC(C)Oc1nn(CC2CCC(F)(F)C2)c(C(=O)Nc2ccnc(C(N)=O)c2)c1C(F)(F)F (centres unmarked) [SC-155, 4-(1-((3,3-difluorocyclopentyl)methyl)-3-isopropoxy-4-(trifluoromethyl)-1H-pyrazole-5-carboxamido)picolinamide]",IC50,≤ 100 nM
"CCOc1nn(CC2CCC(F)(F)C2)c(C(=O)Nc2ccnc(C(N)=O)c2)c1C(F)(F)F (centres unmarked) [SC-156, 4-(1-((3,3-difluorocyclopentyl)methyl)-3-ethoxy-4-(trifluoromethyl)-1H-pyrazole-5-carboxamido)picolinamide]",IC50,≤ 100 nM
NC(=O)c1cc(NC(=O)c2c(C(F)(F)F)c(OC(F)F)nn2C[C@@H]2CCC(F)(F)C2)ccn1 [SC-158R],IC50,≤ 100 nM
NC(=O)c1cc(NC(=O)c2c(C(F)(F)F)c(OC(F)F)nn2C[C@H]2CCC(F)(F)C2)ccn1 [SC-158S],IC50,≤ 100 nM
"NC(=O)c1cc(NC(=O)c2c(C(F)(F)F)c(C3CC3)nn2CC2CCC2)ccn1 [SC-159, 4-(1-(cyclobutylmethyl)-3-cyclopropyl-4-(trifluoromethyl)-1H-pyrazole-5-carboxamido)picolinamide]",IC50,≤ 100 nM
"Cc1c(C(C)(F)F)nn(CC2CC(F)(F)C2)c1C(=O)Nc1ccnc(C(N)=O)c1 [SC-161, 4-(1-((3,3-difluorocyclobutyl)methyl)-3-(1,1-difluoroethyl)-4-methyl-1H-pyrazole-5-carboxamido)picolinamide]",IC50,≤ 100 nM
"Cc1c(C(F)F)nn(CC2CCC(F)(F)CC2)c1C(=O)Nc1ccnc(C(N)=O)c1 [SC-163, 4-(1-((4,4-difluorocyclohexyl)methyl)-3-(difluoromethyl)-4-methyl-1H-pyrazole-5-carboxamido)picolinamide]",IC50,≤ 100 nM
"Cc1c(C(C)(F)F)nn(CC2CCC(F)(F)C2)c1C(=O)Nc1ccnc(C(N)=O)c1 (centres unmarked) [SC-167, 4-(1-((3,3-difluorocyclopentyl)methyl)-3-(1,1-difluoroethyl)-4-methyl-1H-pyrazole-5-carboxamido)picolinamide]",IC50,≤ 100 nM
"CC(C)c1nn(CC2CC(F)(F)C2)c(C(=O)Nc2ccnc(C(N)=O)c2)c1C(F)(F)F [SC-170, 4-(1-((3,3-difluorocyclobutyl)methyl)-3-isopropyl-4-(trifluoromethyl)-1H-pyrazole-5-carboxamido)picolinamide]",IC50,≤ 100 nM
"CCc1nn(CC2CC(F)(F)C2)c(C(=O)Nc2ccnc(C(N)=O)c2)c1C(F)(F)F [SC-172, 4-(1-((3,3-difluorocyclobutyl)methyl)-3-ethyl-4-(trifluoromethyl)-1H-pyrazole-5-carboxamido)picolinamide]",IC50,≤ 100 nM
"CC(F)(F)c1nn(CC2CC(F)(F)C2)c(C(=O)Nc2ccnc(C(N)=O)c2)c1C(F)(F)F [SC-180, 4-(1-((3,3-difluorocyclobutyl)methyl)-3-(1,1-difluoroethyl)-4-(trifluoromethyl)-1H-pyrazole-5-carboxamido)picolinamide]",IC50,≤ 100 nM
Cc1c([C@@H](C)C(F)(F)F)nn(CC2CC(F)(F)C2)c1C(=O)Nc1ccnc(C(N)=O)c1 [SC-188a],IC50,100 to 1000 nM
Cc1c([C@H](C)C(F)(F)F)nn(CC2CC(F)(F)C2)c1C(=O)Nc1ccnc(C(N)=O)c1 [SC-188b],IC50,100 to 1000 nM
Cc1c([C@@H](C)C(F)F)nn(CC2CC(F)(F)C2)c1C(=O)Nc1ccnc(C(N)=O)c1 [SC-192a],IC50,100 to 1000 nM
Cc1c([C@H](C)C(F)F)nn(CC2CC(F)(F)C2)c1C(=O)Nc1ccnc(C(N)=O)c1 [SC-192b],IC50,100 to 1000 nM
"Cc1c(OC(F)F)nn(CC2CCC(F)(F)C2)c1C(=O)Nc1ccnc(C(N)=O)c1 (centres unmarked) [SC-196, 4-(1-((3,3-difluorocyclopentyl)methyl)-3-(difluoromethoxy)-4-methyl-1H-pyrazole-5-carboxamido)picolinamide]",IC50,≤ 100 nM
